These results are taken from PMC7083565, “In vitro metabolism, reaction phenotyping, enzyme kinetics, CYP inhibition and induction potential of ataluren” (Pharmacology Research & Perspectives, 2020).

Holding throughout (format): in vitro ADME
One series has as its target T1, UGT1A9 (Homo sapiens, UniProt O60656).
T1 construct: purchased BD Biosciences; host or cells: baculovirus-infected insect cells
T1 sequence (O60656 26-530): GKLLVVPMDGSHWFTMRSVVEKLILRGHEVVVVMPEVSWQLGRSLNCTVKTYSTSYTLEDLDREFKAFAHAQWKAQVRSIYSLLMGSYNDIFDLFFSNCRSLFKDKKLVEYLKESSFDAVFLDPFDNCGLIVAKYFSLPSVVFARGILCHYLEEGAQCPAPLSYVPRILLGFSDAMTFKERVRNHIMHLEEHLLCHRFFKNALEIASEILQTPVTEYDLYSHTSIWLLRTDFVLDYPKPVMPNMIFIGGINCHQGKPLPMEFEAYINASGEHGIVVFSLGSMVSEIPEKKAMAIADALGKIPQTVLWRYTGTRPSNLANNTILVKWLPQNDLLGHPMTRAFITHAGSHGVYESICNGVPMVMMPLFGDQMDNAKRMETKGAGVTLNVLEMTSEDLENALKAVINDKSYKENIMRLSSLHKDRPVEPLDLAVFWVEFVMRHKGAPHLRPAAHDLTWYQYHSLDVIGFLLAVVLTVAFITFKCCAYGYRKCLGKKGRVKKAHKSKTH
Nature of the series: Ataluren glucuronidation kinetics, recombinant human UGT1A9. The following applies: for K m / K m, u / V max: mean ± SE; for K m / K m, u / V max / fraction unbound at 15 min: n = 3; for microsomal CLint / fraction unbound at 15 min: human; for microsomal CLint: read-out: CLint,u,UGT; for fraction unbound at 15 min: recombinant human UGT1A9 incubation mixture, mean ± SD, read-out: fu,inc. The protocol:
Ataluren at 0.5, 2.5, 12.5, 25, 50, 100, 200, and 400 µmol/L, was incubated (n = 3) at 37°C with recombinant human UGT1A9 and with pooled microsomes from human liver, kidney, and intestine (0.025 mg protein/mL, preactivated with alamethicin at 20 µg/mL) in Tris‐HCl buffer (0.1 mol/L, pH 7.5), in the presence of 1 mmol/L EDTA, 5 mmol/L MgCl2, with or without 0.5%, 1%, or 2% BSA. The incubation (100 µL final volume with 0.5% DMSO) was started by adding an equal volume of UDPGA (5 mmol/L) in Tris‐HCl buffer (0.1 mol/L, pH 7.5). After 30 minutes incubation, the incubation mixtures were combined with 0.3 mL of an internal standard solution in acetonitrile with 1% formic acid, followed by membrane plate filtration. The filtrates were used for LC‐MS/MS analysis to quantify the formation of ataluren‐O‐1β‐acyl glucuronide. Detailed LC‐MS/MS conditions are summarized in LC‐MS/MS Analysis section. Ataluren acyl glucuronide formation rate after 30 minutes incubation was calculated using the amount of metabolite formed (pmol) divided by the protein amount in the incubation sample (0.0025 mg) and the incubation time (30 minutes). Ataluren glucuronidation kinetic parameters were determined with and without adjusting BSA binding by nonlinear regression (GraphPad Prism, 5version 5.04, GraphPad Software, Inc.) using Michaelis‐Menten equation which was the best fit compared with other models. The intrinsic clearance was calculated as CLint = Vmax/Km. In order to compare unbound intrinsic clearance by glucuronidation (CLint,u,UGT) in different tissues, CLint,u,UGT was expressed per gram of tissue by correcting the values for the microsomal protein yield, resulting in scaled CLint,u,UGT. Microsomal protein yields of 40.0, 12.8, and 20.6 mg protein/g tissue were used for hepatic, renal, and intestinal data, respectively. ^26
The high‐throughput membrane ultrafiltration method ^27 was used to determine the fraction unbound in the incubation (n = 3). Incubation mixtures and procedures were essentially the same as the above except that UDPGA (5 mmol/L) was replaced with Tris‐HCl buffer (0.1 mol/L, pH 7.5). After 15 minutes incubation, aliquot was transferred to a Millipore Multiscreen Ultracel‐10 filter plate (10 kDa molecular mass cut off; EMD Millipore). The plate was centrifuged at 37°C and 3710 g. After 30 minutes centrifugation, aliquots of ultrafiltrates and incubation mixtures prior to ultrafiltration were quenched with an internal standard solution in acetonitrile, followed by membrane plate filtration. The filtrates were used for LC‐MS/MS analysis to quantify the concentration of ataluren. The same LC‐MS/MS conditions described above are summarized in LC‐MS/MS Analysis section. The free fraction = Cu/Cm, where Cu is the concentration of ataluren in the ultrafiltrate and Cm is the concentration of ataluren in the incubation system before centrifugation. Unbound Km (Km, u) was recalculated by applying Michaelis‐Menten equation using free ataluren concentrations after correcting BSA binding at each ataluren and BSA concentration level.
Quantification of ataluren‐O‐1β‐acyl glucuronide formation was conducted on an Accela pump and a PAL autosampler equipped with a TSQ Quantum Ultra mass spectrometer (Thermo Fisher Scientific). A Waters Acquity BEH column (C18, 1.7 µm, 50 × 2.1 mm; Waters Cooperation) was used and maintained at 50°C. The mobile phases were 0.1% formic acid in water (A) and acetonitrile (B). The flow rate was 0.6 mL/min and gradient program was as follows: linear gradient from 0% B to 95% B in 0.5 minutes and hold isocratic at 95% B for 1 minute; linear gradient from 95% B to 0% B in 0.1 minutes and hold isocratic at 0% B for 0.4 minutes. TSQ Quantum Ultra mass spectrometer was equipped with a heated electrospray ionization source operated in negative‐ion mode with a vaporizer temperature of 350°C, capillary temperature of 380°C, and spray voltage of 3 kV. […]

Series [1] is described as follows: Plasma protein binding (ultrafiltration), rat. The following applies: male, Sprague Dawley, 50 to 50 000 ng/mL, mean ± SD, n = 3, read-out: percentage protein binding (converted). As to the method:
(§1) [^14C]‐Ataluren, at 50, 500, 5000, and 50 000 ng/mL or 0.175, 1.75, 17.5, and 175 µM, in male mouse, rat, dog, monkey, and human plasma, was incubated (n = 3) at 37°C for approximately 15 minutes, transferred into Centrifree® Micropartition Units (30 000 Da molecular weight cutoff, 1 mL capacity; Amicon Inc), and centrifuged at 37°C and 2000 g for approximately 10 minutes so that the amount of the sample filtered was approximately ≤ 20% of the total volume. After centrifugation, the entire ultrafiltrate was weighed and analyzed for radioactivity using liquid scintillation counting. The percent bound = (1‐Cu/Cm)×100, where Cu is the concentration of radioactivity in the ultrafiltrate and Cm is the concentration of radioactivity in the plasma before centrifugation.

Series [2] is described as follows: Free fraction in human liver microsomes (internal data). Conditions: between 1 and 200 µmol/L, 0.1 mg/mL protein concentration.
Series [3] is described as follows: Plasma protein binding (ultrafiltration), monkey. Conditions: male, cynomolgus, 50 to 50 000 ng/mL, mean ± SD, n = 3, read-out: percentage protein binding (converted). As to the method: as §1

Molecules are shown by their SMILES. Read-outs that look alike come from different tables or passages of the source.

On to `O=C(O)c1cccc(-c2noc(-c3ccccc3F)n2)c1` [ataluren, Ataluren], for which the K m on UGT1A9 (UGT1A9, 0% BSA) amounted to 4.76 ± 0.934 µM; on UGT1A9 (UGT1A9, 0.5% BSA), 26.4 ± 2.80 µM; on UGT1A9 (UGT1A9, 1% BSA), 45.6 ± 3.83 µM; at UGT1A9 (UGT1A9, 2% BSA), 83.4 ± 15.3 µM. Besides, the “K m, u” value at UGT1A9 (UGT1A9, 0% BSA) came out at 4.76 ± 0.934 µM; on UGT1A9 (UGT1A9, 0.5% BSA), 2.71 ± 0.309 µM; on UGT1A9 (UGT1A9, 1% BSA), 2.52 ± 0.243 µM; at UGT1A9 (UGT1A9, 2% BSA) it was 2.46 ± 0.498 µM. Further, the V max at UGT1A9 (UGT1A9, 0% BSA) is 1058 ± 31.8 pmol/min/mg; at UGT1A9 (UGT1A9, 0.5% BSA), 752 ± 20.3 pmol/min/mg; at UGT1A9 (UGT1A9, 1% BSA), 842 ± 23.0 pmol/min/mg; on UGT1A9 (UGT1A9, 2% BSA) it was 847 ± 56.2 pmol/min/mg. The microsomal CLint was determined as 222 µL/min/mg at UGT1A9 (recombinant human UGT1A9, pH 7.5, UGT1A9, 0% BSA); 277 µL/min/mg on UGT1A9 (recombinant human UGT1A9, pH 7.5, UGT1A9, 0.5% BSA); 334 µL/min/mg on UGT1A9 (recombinant human UGT1A9, pH 7.5, UGT1A9, 1% BSA); 344 µL/min/mg at UGT1A9 (recombinant human UGT1A9, pH 7.5, UGT1A9, 2% BSA). For the same molecule, the fraction unbound at 15 min at UGT1A9 (pH 7.5, UGT1A9, 0% BSA) was 1 ± 0.5; at UGT1A9 (pH 7.5, UGT1A9, 0.5% BSA) it was 0.116 ± 0.019; on UGT1A9 (pH 7.5, UGT1A9, 1% BSA), 0.064 ± 0.007; at UGT1A9 (pH 7.5, UGT1A9, 2% BSA), 0.035 ± 0.003; in series [1], 0.013; in series [3] it was 0.003. At UGT1A9 (recombinant UGT1A9, with vs without BSA), the “maximal effect of BSA on CLint,u (increase)” value is “approximately 1.6 fold”. The “Free fractions of ataluren in human liver microsomes” value in series [2] was “close to unity”.
